Consider 5 compounds from patent US11478464B1, “Method for treating inflammation” (KING FAISAL UNIVERSITY, priority 2022, dated 2022).

Series [1] deals with carrageenan-induced rat paw edema. The experiment in a line: Carrageenan-induced paw edema in rats. In kind it is in vivo. To be noted: 10 mg/kg oral; for Paw size: individual rats; for Paw size, Average: average over all measurements 0-5 hours. As to the method:
Carrageenan was injected subcutaneously into a rodent's paw to generate inflammation due to plasma extravasation, tissue proliferation, plasma protein release, and neutrophilic extravasation, all of which are caused by arachidonic acid digestion. The major phase of inflammation occurs after the carrageenan infusion, and lasts about two hours. This primary stage is associated with the emergence of histamine and serotonin. The next stage frequently is remodeling and edema, which lasts about five hours and begins at about the third hour after administration of carrageenan. The appearance of prostaglandins, proteases, and lysosomes is associated with this second stage of inflammation.
Adult male albino rats weighing 120 g-150 g were divided into five groups of seven rats, allowed free access to food and water at 25° C. and 12 h light/dark cycle. Inflammation was generated in the rats by subplantar injection of 0.2 ml of 1% carrageenan solution in 0.9 percent saline (Sigma-Aldrich, St. Louis, Mo., USA), and injected into the right hind paw. A vernier caliper (SMIEC, Shanghai, China) was used to measure the thickness of the rat paws before and after carrageenan injection to provide a measure of the inflammation caused by carrageenan.
Paw edema was measured at 0 minutes, 30 minutes, and 1, 2, 3, 4, and 5 hours following administration of the medication. Inhibition of edema was indicated by the reduction of increased thickness when comparing the treated and control groups.
Background: In the carrageenan paw model, swelling and tenderness develop within hours.

The subject of the next series is HEK293 cells. To be noted: 40 μM; for Proliferation of HEK293 (difference in absorbance between 450 and 620 nm), individual wells: WST-1.
A further series has as its system rat paw. The experiment in a line: Histopathologic examination of carrageenan-treated rat paw (H&E, Masson's trichrome). To be noted: for Rat paw collagen deposition, Masson's Trichrome stain / Rat paw histopathology, H&E, 10× magnification: 10×; for Rat paw histopathology, H&E: inflammatory reaction and edema: H&E stain. In kind it is in vivo. As to the method:
The rat paws were removed and promptly cleaned in saline solution. The specimens were then fixed in 10% natural formalin for two days, and then rinsed with running water overnight. The cleaned samples were then dehydrated in increasing concentrations of ethyl alcohol, beginning with 70% and ending with absolute alcohol.
The samples were cleared by soaking them in xylol for 2 hours. The cleared samples were placed in a covered jar containing 50% paraffin in xylol for 3 hours at 37° C. The samples were then immersed in melting paraffin and maintained at 48° C. for 2 hours before being blocked in hard paraffin and cut into 5-micron sections. Hematoxylin and eosin (H&E) and Masson's trichrome were used to stain the sections. To prepare for histopathological investigation, sections of control rat paws, as well as rat paws treated with carrageenan alone or along with Compound 1, Compound 2, or indomethacin, were mounted with Canada balsam and coated with a coverslip.
The density of the blue-green collagen is consistent with the relative amount of deposited total collagen fiber, which represents collagen synthesis, degradation, and remodeling—some of which is associated with inflammation.

Series [2] concerns rat stomach. The experiment in a line: Ulcerogenic effect on rat stomach (histopathology). It is filed as in vivo. To be noted: for Rat stomach collagen deposition, Masson's Trichrome stain, 10× / Rat stomach collagen deposition, Masson's Trichrome stain / Rat stomach collagen deposition, Masson's Trichrome stain, 40×: 20 mg/kg oral single dose, 24 hours; for Rat stomach collagen deposition, Masson's Trichrome stain: 10× and 40×; for Effect on gastric mucosa, in words: rat stomach. As to the method:
Rats were starved for 24 hours at a normal room temperature of 25° C. with a 12-hour light/dark cycle. The reference drug for comparison was indomethacin. All compounds were administered orally at a single dose of 20 mg/kg. The rats were sacrificed after 24 hours, and their stomachs were retrieved and cleansed with normal saline. Each group's stomachs were examined using binocular magnification to detect the presence of a gastric lesion on the mucosa. The stomachs were then preserved in 10% w/v formalin for histological analysis. Exemplary photomicrographs are included in FIGS. 5A to 5H, and FIGS. 6A to 6H, as discussed further below.
This was accomplished by histopathologic examination of rat stomachs stained by Masson's Trichrome stain. See the photomicrographs of exemplary sections depicted in FIGS. 6A to 6H. Again, after application of Masson's Trichrome, the collagen fibrils are stained blue-green. The double-headed arrow represents collagen fibrils thickness in the submucosa.

The subject of series [3] is rat stomach. Put plainly: Ulcerogenic effect on rat stomach (histopathology). In kind it is in vivo. The following applies: 20 mg/kg oral single dose, 24 hours; for Rat stomach gastric layers, H&E: 10×; for Rat stomach inflammatory reaction, H&E: 40×.

Each structure is given as a SMILES string. Where “and” joins values, the source holds several entries; their conditions need not be identical. Identical values can stand only once. Entries after “also recorded” stand apart in the source; their conditions may differ. Like-named read-outs stand apart in the source and are kept apart here.

Procedure for HEK293 cells: HEK293 cells were treated with the compound solution at 40 μM or the vehicle dimethyl sulfoxide (DMSO) for 24 hours, with the addition of 5% fetal ox-like serum for recognition of cell feasibility reliant on mitochondrial movement.
Three wells were tested for each treatment. WST-1 reagent was added to each well, and the cells were incubated at 37° C.

Consider `Cc1ccc(-c2cc(C(F)(F)F)nn2-c2ccc(S(N)(=O)=O)cc2)cc1` [Celecoxib, reference compound], for which, in series [1], the “Effect on rat paw edema, in words” value is recorded as “dramatically reduced”. Further, in the series with HEK293 cells (human, 24 h), the “Cytotoxicity: morphological changes or damages in HEK293 cells” value was “caused changes and damages in HEK293 cells”.

For the compound `Cc1cccc2[nH]c(C3CCCN(C(=O)c4ccccc4NCC(=O)O)C3)nc12` (stereo not shown) [Compound 1, [(2-{[3-(4-methyl-1H-benzimidazol-2-yl)piperidin-1-yl]carbonyl}phenyl)amino] acetic acid], in series [1], the “Effect on rat paw edema, in words” value was “demonstrated to treat paw swelling; also recorded: significant decreases in rat paw size; also recorded: dramatically reduced” and the “Paw size, Average” value is given as 0.542 cm. Besides, the Paw size in series [1] (30 min) is 0.7 cm (3×) and 0.65 cm (4×). Moreover, the Paw size in series [1] (1 hour) is 0.55 cm and 0.5 cm (4×) and 0.45 cm (2×). Moreover, the Paw size in series [1] (2 hours) was 0.5 cm (2×) and 0.45 cm (3×) and 0.4 cm (2×). Also, the Paw size in series [1] (3 hours) was 0.4 cm (3×) and 0.35 cm and 0.45 cm (3×). In series [1] (4 hours), the Paw size was 0.45 cm (2×) and 0.4 cm (4×) and 0.5 cm. Further, the Paw size in series [1] (5 hours) was 0.55 cm and 0.6 cm (4×) and 0.65 cm (2×). For the same compound, the Paw size in series [1] (zero time) is 0.75 cm (4×) and 0.7 cm (3×). In the series on rat paw, the “Rat paw collagen deposition, Masson's Trichrome stain” value (“Rat paw collagen deposition” below) is reported as “slight collagen deposition”; the “Rat paw histopathology, H&E, 10× magnification” value is “significant decrease in dermal thickness, inflammatory reaction in the deep dermis (black star), and moderate improvement in edema”; the “Rat paw histopathology, H&E, 40× magnification” value is “slight inflammatory reaction (black star) and slight edema”; the “Rat paw histopathology, H&E: inflammatory reaction and edema” value was “reduce inflammatory cell infiltration and alleviate edema with lesser collagen deposition; also recorded: marked improvement in the degree of edema and the inflammatory cell infiltration”. For the same compound, in the series on rat stomach [2], the “Rat stomach collagen deposition, Masson's Trichrome stain, 10×” value (shortened to “Rat stomach collagen deposition … 10×”) is given as “normal collagen deposition”; the “Rat stomach collagen deposition, Masson's Trichrome stain” value was “normal collagen deposition”; the “Rat stomach collagen deposition, Masson's Trichrome stain, 40×” value (“Rat stomach collagen deposition … 40×” for short) was “normal collagen deposition”; the “Effect on gastric mucosa, in words” value is reported as “no effect on gastric mucosa integrity or mucosa collagen content; also recorded: devoid of side effects on gastric mucosa”. Besides, in the series with HEK293 cells (24 hours), the “Proliferation of HEK293 (difference in absorbance between 450 and 620 nm), individual wells” value is 1.0653 and 1.0573 and 1.0547. The “Proliferation of HEK293 (difference in absorbance between 450 and 620 nm), Average” value in the series on HEK293 cells (24 hours, WST-1, three wells) is listed as 1.06. For the same compound, in the series on rat stomach [3], the “Rat stomach gastric layers, H&E” value was “normal gastric layers” and the “Rat stomach inflammatory reaction, H&E” value is recorded as “no sign of inflammatory reaction”. For the same compound, in the series with rat stomach [3] (listed as compound 1), the “Rat stomach inflammatory reaction, H&E” value is reported as “absence of any inflammatory reaction”.

As for `CCOC(=O)c1cn(-c2cc(C#N)ccc2O)cc(Oc2ccccc2)c1=O` [Compound 2, ethyl-1-(5-cyano-2-hydroxyphenyl)-4-oxo-5-phenoxy-1,4-dihydropyridine-3-carboxylate], in series [1], the “Effect on rat paw edema, in words” value was “demonstrated to treat paw swelling; also recorded: significant decreases in rat paw size; also recorded: dramatically reduced” and the “Paw size, Average” value was determined as 0.524 cm. The Paw size in series [1] (30 min) is 0.7 cm (3×) and 0.65 cm (2×) and 0.55 cm (2×). In addition, the Paw size in series [1] (1 hour) is 0.55 cm and 0.5 cm (3×) and 0.45 cm (3×). Moreover, the Paw size in series [1] (2 hours) is 0.45 cm (2×) and 0.4 cm (5×). Besides, the Paw size in series [1] (3 hours) is 0.35 cm and 0.4 cm (5×) and 0.45 cm. The Paw size in series [1] (4 hours) was 0.4 cm (5×) and 0.45 cm (2×). The Paw size in series [1] (5 hours) was 0.55 cm and 0.6 cm (5×) and 0.5 cm. Moreover, in series [1] (zero time), the Paw size is 0.75 cm (5×) and 0.7 cm (2×). In the series on rat paw, the “Rat paw collagen deposition” value was “slight collagen deposition; also recorded: lowest”; the “Rat paw histopathology, H&E, 10× magnification” value was “substantial decrease in both inflammatory reaction (black star) and edema”; the “Rat paw histopathology, H&E, 40× magnification” value was “slight inflammatory reaction (black star) and slight edema”; the “Rat paw histopathology, H&E: inflammatory reaction and edema” value was “reduce inflammatory cell infiltration and alleviate edema with lesser collagen deposition; also recorded: substantial decrease in both inflammatory reaction (black star) and a pronounced decline in edema”. In the series on rat stomach [2], the “Rat stomach collagen deposition … 10×” value was “slight collagen deposition”; the “Rat stomach collagen deposition, Masson's Trichrome stain” value is reported as “slight collagen deposition”; the “Rat stomach collagen deposition … 40×” value is listed as “slight collagen deposition”; the “Effect on gastric mucosa, in words” value is given as “no effect on gastric mucosa integrity or mucosa collagen content; also recorded: devoid of side effects on gastric mucosa”. Moreover, the “Proliferation of HEK293 (difference in absorbance between 450 and 620 nm), individual wells” value in the series on HEK293 cells (24 hours) was 1.0667 and 1.0476 and 1.0648. The “Proliferation of HEK293 (difference in absorbance between 450 and 620 nm), Average” value in the series on HEK293 cells (24 hours, WST-1, three wells) stood at 1.06. In the series on rat stomach [3], the “Rat stomach gastric layers, H&E” value is given as “normal gastric layers” and the “Rat stomach inflammatory reaction, H&E” value is “absence of any inflammatory reaction; also recorded: no sign of inflammatory reaction”.

Consider `O=C(O)Cc1ccccc1Nc1c(Cl)cccc1Cl` [Diclofenac, reference compound], for which the “Effect on rat paw edema, in words” value in series [1] is given as “significantly reduced rat paw edema”. Besides, the Paw size in series [1] (30 min) was 0.7 cm and 0.65 cm (4×) and 0.6 cm (2×); in series [1] (1 hour) it was 0.55 cm and 0.5 cm (3×) and 0.4 cm (2×) and 0.45 cm; in series [1] (2 hours), 0.45 cm (4×) and 0.4 cm (3×); in series [1] (3 hours), 0.4 cm (4×) and 0.35 cm (2×) and 0.45 cm; in series [1] (4 hours), 0.35 cm (2×) and 0.4 cm (3×) and 0.45 cm (2×); in series [1] (5 hours), 0.55 cm (3×) and 0.6 cm (4×). Besides, the Paw size in series [1] (zero time) was 0.7 cm (5×) and 0.75 cm (2×). In addition, in series [1], the “Paw size, Average” value came to 0.518 cm. Further, the “Proliferation of HEK293 (difference in absorbance between 450 and 620 nm), Average” value in the series on HEK293 cells (human, 24 h) came out at 1.

On to `COc1ccc2c(c1)c(CC(=O)O)c(C)n2C(=O)c1ccc(Cl)cc1` [Indomethacin, reference compound], for which, in series [1], the “Effect on rat paw edema, in words” value is listed as “significantly reduced rat paw edema; also recorded: dramatically reduced” and the “Paw size, Average” value is recorded as 0.494 cm. Besides, the Paw size in series [1] (30 min) was 0.7 cm and 0.6 cm (4×) and 0.65 cm (2×). In series [1] (1 hour), the Paw size is 0.5 cm (2×) and 0.4 cm (4×) and 0.45 cm. In addition, the Paw size in series [1] (2 hours) was 0.45 cm and 0.4 cm (3×) and 0.35 cm (3×). In series [1] (3 hours), the Paw size was 0.4 cm (5×) and 0.35 cm (2×). Moreover, the Paw size in series [1] (4 hours) is 0.35 cm (4×) and 0.4 cm (3×). For the same compound, the Paw size in series [1] (5 hours) was 0.5 cm and 0.55 cm (4×) and 0.45 cm (2×). In series [1] (zero time), the Paw size was 0.7 cm (2×) and 0.75 cm (5×). In addition, in the series on rat paw, the “Rat paw collagen deposition” value was “slight collagen deposition”; the “Rat paw histopathology, H&E, 10× magnification” value is “significant decrease in inflammatory reaction (black star) and a moderate decrease in edema”; the “Rat paw histopathology, H&E, 40× magnification” value is “slight inflammatory reaction (black star) and slight edema”; the “Rat paw histopathology, H&E: inflammatory reaction and edema” value was “significant decrease in the degree of inflammatory reaction (black star), and a moderate decrease in edema”. In the series with rat stomach [2], the “Rat stomach collagen deposition … 10×” value is recorded as “significant collagen deposition”; the “Rat stomach collagen deposition, Masson's Trichrome stain” value was “significant collagen deposition”; the “Rat stomach collagen deposition … 40×” value is on record as “collagen deposition”. Further, in the series with rat stomach [3], the “Rat stomach gastric layers, H&E” value was “slight degeneration of gastric layers” and the “Rat stomach inflammatory reaction, H&E” value is reported as “absence of any inflammatory reaction; also recorded: no sign of inflammatory reaction”.
